Measured values from patent US20010044382A1, “Herbicide” (priority 1998, published 2001).

Assays:
Type in all cases: in vivo
Xanthium = assay: Pre-emergence test (greenhouse), herbicidal action
Experimental: (§1) Experiment Description—Pre-emergence Test:
(§2) The test plants are sown in standard soil in plastics pots under greenhouse conditions. Directly after sowing, the test compounds are applied in aqueous suspension (500 liters of water/ha). The test plants are then grown on in the greenhouse under optimum conditions. The rates of application depend on the optimum doses ascertained under field conditions and greenhouse conditions. The tests are evaluated after 26 days (% action, 100%=plants have died, 0%=no phytotoxic action).

Polygonum = assay: Pre-emergence test (greenhouse), herbicidal action
Experimental: as §1, §2

Ipomoea = assay: Pre-emergence test (greenhouse), herbicidal action
Experimental: as §1, §2

Digitaria = assay: Post-emergence test (greenhouse), herbicidal action; settings: halosulfuron 100 g/ha, after 20 days
Experimental: (§3) Experiment Description—Post-emergence Test:
(§4) The test plants are grown to the 2- to 3-leaf stage in plastics pots under greenhouse conditions. A standard soil is used as cultivation substrate. At the 2- to 3-leaf stage, the herbicide is applied to the test plants on its own and as a mixture. The application is carried out using an aqueous suspension of the test compounds in 500 liters of water/ha. The rates of application depend on the optimum doses ascertained under field conditions and greenhouse conditions. The tests are evaluated after 20 days (% action, 100%=plant has died, 0%=no phytotoxic action).

Cyperus = assay: as above; settings: primisulfuron 20 g/ha, after 20 days
Experimental: as §3, §4

[1] = atrazine 200 g/ha, after 26 days (Table 5)
[2] = atrazine 200 g/ha, after 26 days (Table 7)
[3] = terbuthylazine 200 g/ha, after 26 days (Table 4)
[4] = terbuthylazine 200 g/ha, after 26 days (Table 6)

CCNc1nc(Cl)nc(NC(C)C)n1 [Atrazine, atrazine]
% action (Xanthium; [1]): 0% | % action (Xanthium; [2]): 0% | % action (Polygonum; [1]): 90% | % action (Ipomoea; [2]): 70%

COc1cc(OC)nc(NC(=O)NS(=O)(=O)c2c(C(=O)O)c(Cl)nn2C)n1 [Halosulfuron, halosulfuron]
% action (Digitaria): 25%

O=C(Nc1nc(OC(F)F)cc(OC(F)F)n1)NS(=O)(=O)c1ccccc1C(=O)O [Primisulfuron, primisulfuron]
% action (Cyperus): 90%

CCNc1nc(Cl)nc(NC(C)(C)C)n1 [Terbuthylazine, terbuthylazine]
% action (Xanthium; [3]): 0% | % action (Xanthium; [4]): 0% | % action (Polygonum; [3]): 60% | % action (Polygonum; [4]): 60% | % action (Ipomoea; [3]): 30% | % action (Ipomoea; [4]): 30%
